Results as given in PubChem BioAssay (NCI).
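Cells were grown in 96-well plates and exposed to each compound for 48 hours at five concentrations; endpoints were interpolated linearly between bracketing concentrations, or set to the highest concentration if not reached. GI50 = concentration required for 50% inhibition of growth. TGI: concentration producing complete growth inhibition.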

Assays:
Assay in all cases: DTP human tumour cell line panel, 48 h
HCT-15 colon = system: HCT-15 colon
OVCAR-8 ovarian = system: OVCAR-8 ovarian
SK-OV-3 ovarian = system: SK-OV-3 ovarian
COLO 205 colon = system: COLO 205 colon
M14 melanoma = system: M14 melanoma
SK-MEL-5 melanoma = system: SK-MEL-5 melanoma
A549 NSCLC = system: A549 NSCLC
HL-60(TB) leukemia = system: HL-60(TB) leukemia
K-562 leukemia = system: K-562 leukemia
UACC-257 melanoma = system: UACC-257 melanoma
OVCAR-4 ovarian = system: OVCAR-4 ovarian
SN12C renal = system: SN12C renal
HCC-2998 colon = system: HCC-2998 colon
SW-620 colon = system: SW-620 colon
RXF 393 renal = system: RXF 393 renal
HT29 colon = system: HT29 colon
SF-295 CNS = system: SF-295 CNS
T-47D breast = system: T-47D breast
NCI/ADR-RES ovarian = system: NCI/ADR-RES ovarian
OVCAR-5 ovarian = system: OVCAR-5 ovarian
DU-145 prostate = system: DU-145 prostate
786-0 renal = system: 786-0 renal
SNB-19 CNS = system: SNB-19 CNS
NCI-H522 lung = system: NCI-H522 lung
UO-31 renal = system: UO-31 renal
CCRF-CEM leukemia = system: CCRF-CEM leukemia
IGROV1 ovarian = system: IGROV1 ovarian
U251 CNS = system: U251 CNS
HOP-62 NSCLC = system: HOP-62 NSCLC
OVCAR-3 ovarian = system: OVCAR-3 ovarian
MALME-3M melanoma = system: MALME-3M melanoma
UACC-62 melanoma = system: UACC-62 melanoma
MCF7 breast = system: MCF7 breast
MDA-MB-231 breast = system: MDA-MB-231 breast
MDA-MB-435 = system: MDA-MB-435
ACHN renal = system: ACHN renal
EKVX NSCLC = system: EKVX NSCLC
BT-549 breast = system: BT-549 breast
SF-268 CNS = system: SF-268 CNS
RPMI-8226 leukemia = system: RPMI-8226 leukemia
HOP-92 NSCLC = system: HOP-92 NSCLC
CAKI-1 renal = system: CAKI-1 renal
KM12 colon = system: KM12 colon
A498 renal = system: A498 renal
SR leukemia = system: SR leukemia
NCI-H460 lung = system: NCI-H460 lung
SK-MEL-2 melanoma = system: SK-MEL-2 melanoma
HCT-116 colon = system: HCT-116 colon
TK-10 renal = system: TK-10 renal
MOLT-4 leukemia = system: MOLT-4 leukemia
LOX IMVI melanoma = system: LOX IMVI melanoma
SNB-75 CNS = system: SNB-75 CNS
HS 578T breast = system: HS 578T breast
SF-539 CNS = system: SF-539 CNS
NCI-H23 lung = system: NCI-H23 lung
SK-MEL-28 melanoma = system: SK-MEL-28 melanoma
NCI-H226 lung = system: NCI-H226 lung
PC-3 prostate = system: PC-3 prostate

O=C(NC(=S)Nc1ccccn1)c1ccccc1
GI50 (HCT-15 colon): 70.7 µM | TGI (HCT-15 colon): > 100 µM | GI50 (OVCAR-8 ovarian): > 100 µM | TGI (OVCAR-8 ovarian): > 100 µM | GI50 (SK-OV-3 ovarian): > 100 µM | TGI (SK-OV-3 ovarian): > 100 µM | GI50 (COLO 205 colon): > 100 µM | TGI (COLO 205 colon): > 100 µM | GI50 (M14 melanoma): > 100 µM | TGI (M14 melanoma): > 100 µM | GI50 (SK-MEL-5 melanoma): > 100 µM | TGI (SK-MEL-5 melanoma): > 100 µM | GI50 (A549 NSCLC): > 100 µM | TGI (A549 NSCLC): > 100 µM | GI50 (HL-60(TB) leukemia): > 100 µM | TGI (HL-60(TB) leukemia): > 100 µM | GI50 (K-562 leukemia): > 100 µM | TGI (K-562 leukemia): > 100 µM | GI50 (UACC-257 melanoma): > 100 µM | TGI (UACC-257 melanoma): > 100 µM | GI50 (OVCAR-4 ovarian): 24.4 µM | TGI (OVCAR-4 ovarian): > 100 µM | GI50 (SN12C renal): > 100 µM | TGI (SN12C renal): > 100 µM | GI50 (HCC-2998 colon): > 100 µM | TGI (HCC-2998 colon): > 100 µM | GI50 (SW-620 colon): > 100 µM | TGI (SW-620 colon): > 100 µM | GI50 (RXF 393 renal): > 100 µM | TGI (RXF 393 renal): > 100 µM | GI50 (HT29 colon): > 100 µM | TGI (HT29 colon): > 100 µM | GI50 (SF-295 CNS): > 100 µM | TGI (SF-295 CNS): > 100 µM | GI50 (T-47D breast): 5.98 µM | TGI (T-47D breast): > 100 µM | GI50 (NCI/ADR-RES ovarian): > 100 µM | TGI (NCI/ADR-RES ovarian): > 100 µM | GI50 (OVCAR-5 ovarian): > 100 µM | TGI (OVCAR-5 ovarian): > 100 µM | GI50 (DU-145 prostate): > 100 µM | TGI (DU-145 prostate): > 100 µM | GI50 (786-0 renal): > 100 µM | TGI (786-0 renal): > 100 µM | GI50 (SNB-19 CNS): > 100 µM | TGI (SNB-19 CNS): > 100 µM | GI50 (NCI-H522 lung): > 100 µM | TGI (NCI-H522 lung): > 100 µM | GI50 (UO-31 renal): 39.2 µM | TGI (UO-31 renal): > 100 µM | GI50 (CCRF-CEM leukemia): > 100 µM | TGI (CCRF-CEM leukemia): > 100 µM | GI50 (IGROV1 ovarian): 61.7 µM | TGI (IGROV1 ovarian): > 100 µM | GI50 (U251 CNS): > 100 µM | TGI (U251 CNS): > 100 µM | GI50 (HOP-62 NSCLC): > 100 µM | TGI (HOP-62 NSCLC): > 100 µM | GI50 (OVCAR-3 ovarian): 93.4 µM | TGI (OVCAR-3 ovarian): > 100 µM | GI50 (MALME-3M melanoma): > 100 µM | TGI (MALME-3M melanoma): > 100 µM | GI50 (UACC-62 melanoma): > 100 µM | TGI (UACC-62 melanoma): > 100 µM | GI50 (MCF7 breast): 1.97 µM | TGI (MCF7 breast): > 100 µM | GI50 (MDA-MB-231 breast): > 100 µM | TGI (MDA-MB-231 breast): > 100 µM | GI50 (MDA-MB-435): > 100 µM | TGI (MDA-MB-435): > 100 µM | GI50 (ACHN renal): > 100 µM | TGI (ACHN renal): > 100 µM | GI50 (EKVX NSCLC): 85.2 µM | TGI (EKVX NSCLC): > 100 µM | GI50 (BT-549 breast): > 100 µM | TGI (BT-549 breast): > 100 µM | GI50 (SF-268 CNS): > 100 µM | TGI (SF-268 CNS): > 100 µM | GI50 (RPMI-8226 leukemia): > 100 µM | TGI (RPMI-8226 leukemia): > 100 µM | GI50 (HOP-92 NSCLC): 83.9 µM | TGI (HOP-92 NSCLC): > 100 µM | GI50 (CAKI-1 renal): > 100 µM | TGI (CAKI-1 renal): > 100 µM | GI50 (KM12 colon): > 100 µM | TGI (KM12 colon): > 100 µM | GI50 (A498 renal): 50.8 µM | TGI (A498 renal): > 100 µM | GI50 (SR leukemia): > 100 µM | TGI (SR leukemia): > 100 µM | GI50 (NCI-H460 lung): > 100 µM | TGI (NCI-H460 lung): > 100 µM | GI50 (SK-MEL-2 melanoma): > 100 µM | TGI (SK-MEL-2 melanoma): > 100 µM | GI50 (HCT-116 colon): > 100 µM | TGI (HCT-116 colon): > 100 µM | GI50 (TK-10 renal): > 100 µM | TGI (TK-10 renal): > 100 µM | GI50 (MOLT-4 leukemia): > 100 µM | TGI (MOLT-4 leukemia): > 100 µM | GI50 (LOX IMVI melanoma): > 100 µM | TGI (LOX IMVI melanoma): > 100 µM | GI50 (SNB-75 CNS): > 100 µM | TGI (SNB-75 CNS): > 100 µM | GI50 (HS 578T breast): 71.5 µM | TGI (HS 578T breast): > 100 µM | GI50 (SF-539 CNS): > 100 µM | TGI (SF-539 CNS): > 100 µM | GI50 (NCI-H23 lung): > 100 µM | TGI (NCI-H23 lung): > 100 µM | GI50 (SK-MEL-28 melanoma): > 100 µM | TGI (SK-MEL-28 melanoma): > 100 µM | GI50 (NCI-H226 lung): > 100 µM | TGI (NCI-H226 lung): > 100 µM | GI50 (PC-3 prostate): > 100 µM | TGI (PC-3 prostate): > 100 µM
